Data as given in ChEMBL document CHEMBL5036320, “Discovery of Icenticaftor (QBW251), a Cystic Fibrosis Transmembrane Conductance Regulator Potentiator with Clinical Efficacy in Cystic Fibrosis and Chronic Obstructive Pulmonary Disease” (J Med Chem, 2021).
Converted amounts (≈) assume the structure as drawn. Values belong to the compound of their own block, whether it stands above or below them.

What was measured:
[1] = Solubility of the compound at pH 6.8; type: physicochemical; conditions: buffer
[2] = Oral bioavailability in Sprague-Dawley rat at 3 mg/kg measured upto 48 hrs by LC-MS/MS analysis; type: ADME, organism-based; conditions: in vivo
[3] = Cmax in Sprague-Dawley rat at 3 mg/kg, po and 0.5 mg/kg, iv measured upto 48 hrs by LC-MS/MS analysis; type: ADME, organism-based; design: dose 3 mg/kg, time <=48; conditions: in vivo
[4] = target: T1, Cystic fibrosis transmembrane conductance regulator (Homo sapiens, UniProt P13569, F508DEL); assay: Potentiation of CFTR F508del mutant (unknown origin) expressed in CHO cells assessed as chloride transport by measuring membrane potential incubated for 5 to 30 mins in presence of forskolin by Quattro assay; type: cell-based
T1 sequence (P13569 as listed by the source): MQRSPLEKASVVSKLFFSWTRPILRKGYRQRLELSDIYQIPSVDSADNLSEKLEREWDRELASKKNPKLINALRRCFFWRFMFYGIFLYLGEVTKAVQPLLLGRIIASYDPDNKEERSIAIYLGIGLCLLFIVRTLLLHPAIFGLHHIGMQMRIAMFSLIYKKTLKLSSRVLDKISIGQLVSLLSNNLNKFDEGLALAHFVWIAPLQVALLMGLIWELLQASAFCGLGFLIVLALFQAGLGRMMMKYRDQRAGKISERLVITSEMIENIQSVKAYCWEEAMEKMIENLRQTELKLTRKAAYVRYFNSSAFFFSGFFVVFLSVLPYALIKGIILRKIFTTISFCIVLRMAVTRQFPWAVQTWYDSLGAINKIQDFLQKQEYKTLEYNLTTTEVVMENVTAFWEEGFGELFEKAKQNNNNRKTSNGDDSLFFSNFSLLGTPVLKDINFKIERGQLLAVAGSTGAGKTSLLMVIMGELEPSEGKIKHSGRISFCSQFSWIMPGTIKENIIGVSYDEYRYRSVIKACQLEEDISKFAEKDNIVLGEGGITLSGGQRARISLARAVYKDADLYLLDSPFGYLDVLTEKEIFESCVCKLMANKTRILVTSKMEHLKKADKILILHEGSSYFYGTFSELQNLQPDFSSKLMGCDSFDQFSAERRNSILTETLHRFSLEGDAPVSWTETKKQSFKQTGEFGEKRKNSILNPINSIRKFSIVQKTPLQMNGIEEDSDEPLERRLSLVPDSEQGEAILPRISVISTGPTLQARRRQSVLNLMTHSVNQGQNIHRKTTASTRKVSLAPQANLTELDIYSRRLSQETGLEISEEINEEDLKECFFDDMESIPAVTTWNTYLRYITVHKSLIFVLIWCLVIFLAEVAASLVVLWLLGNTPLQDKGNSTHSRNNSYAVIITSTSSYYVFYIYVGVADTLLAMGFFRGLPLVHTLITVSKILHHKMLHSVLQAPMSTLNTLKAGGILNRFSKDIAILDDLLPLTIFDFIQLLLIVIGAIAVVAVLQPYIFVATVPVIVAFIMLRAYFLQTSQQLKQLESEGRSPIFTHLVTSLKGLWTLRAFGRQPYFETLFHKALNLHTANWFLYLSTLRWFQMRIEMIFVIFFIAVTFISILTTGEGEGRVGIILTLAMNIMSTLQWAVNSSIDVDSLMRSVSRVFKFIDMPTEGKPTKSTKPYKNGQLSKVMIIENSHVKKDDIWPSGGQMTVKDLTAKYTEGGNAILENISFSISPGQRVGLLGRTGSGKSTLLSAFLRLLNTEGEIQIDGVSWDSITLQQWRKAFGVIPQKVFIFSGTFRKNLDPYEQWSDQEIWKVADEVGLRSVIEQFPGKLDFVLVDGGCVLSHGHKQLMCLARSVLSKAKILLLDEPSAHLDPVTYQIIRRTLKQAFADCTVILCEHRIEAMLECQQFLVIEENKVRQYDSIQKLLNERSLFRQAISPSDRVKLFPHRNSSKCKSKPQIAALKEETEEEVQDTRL

[5] = test system: Cystic fibrosis transmembrane conductance regulator (Homo sapiens), P13569 [F508del]; assay: Potentiation of CFTR F508del mutant (unknown origin) expressed in CHO cells assessed as chloride transport by measuring membrane potential incubated for 5 to 30 mins in presence of forskolin by Quattro assay relative to PG-01; type: cell-based; design: concentration or dose not given beside the values; conditions: filed as activator, time 5-30 min
Cystic fibrosis transmembrane conductance regulator (Homo sapiens), P13569 [F508del], sequence (P13569 as listed by the source): as above

[6] = Clearance in Sprague-Dawley rat at 3 mg/kg, po and 0.5 mg/kg, iv measured upto 48 hrs by LC-MS/MS analysis; type: ADME, organism-based; conditions: in vivo
[7] = Volume of distribution at steady state in Sprague-Dawley rat at 3 mg/kg, po and 0.5 mg/kg, iv measured upto 48 hrs by LC-MS/MS analysis; type: ADME, organism-based; conditions: in vivo, read-out: Vdss
[8] = Mean residence time in Sprague-Dawley rat at 3 mg/kg, po and 0.5 mg/kg, iv measured upto 48 hrs by LC-MS/MS analysis; type: ADME, organism-based; conditions: in vivo
[9] = Plasma Protein binding in Sprague-Dawley rat at 5 uM incubated for 4 hrs by rapid equilibrium dialysis; type: ADME, cell-free; conditions: read-out: PPB (converted)
[10] = Cmax in Sprague-Dawley rat at 3 mg/kg, po and 1 mg/kg, iv measured upto 48 hrs by LC-MS/MS analysis; type: ADME, organism-based; design: dose 3 mg/kg, time <=48; conditions: in vivo
[11] = Unbound Cmax in Sprague-Dawley rat at 3 mg/kg, po and 1 mg/kg, iv measured upto 48 hrs by LC-MS/MS analysis; type: ADME, organism-based; conditions: in vivo
[12] = Volume of distribution in Sprague-Dawley rat at 3 mg/kg, po and 1 mg/kg, iv measured upto 48 hrs by LC-MS/MS analysis; type: ADME, organism-based; conditions: in vivo
[13] = Mean residence time in Sprague-Dawley rat at 3 mg/kg, po and 1 mg/kg, iv measured upto 48 hrs by LC-MS/MS analysis; type: ADME, organism-based; conditions: in vivo
[14] = Oral bioavailability in Beagle dog at 3 mg/kg after 48 hrs by LC-MS/MS analysis; type: ADME, organism-based, Canis lupus familiaris; conditions: in vivo
[15] = Oral bioavailability in cynomolgus monkey at 10 mg/kg after 48 hrs by LC-MS/MS analysis; type: ADME, organism-based, Macaca fascicularis; conditions: in vivo
[16] = Cmax in Beagle dog at 3 mg/kg, po or 0.46 mg/kg, iv after 48 hrs by LC-MS/MS analysis; type: ADME, organism-based, Canis lupus familiaris; design: time 48 hrs, dose 3 mg/kg; conditions: in vivo
[17] = Cmax in cynomolgus monkey at 10 mg/kg, po or 0.1 mg/kg, iv after 48 hrs by LC-MS/MS analysis; type: ADME, organism-based, Macaca fascicularis; design: time 48 hrs, dose 10 mg/kg; conditions: in vivo
[18] = Unbound Cmax in Beagle dog at 3 mg/kg, po or 0.46 mg/kg, iv after 48 hrs by LC-MS/MS analysis; type: ADME, organism-based, Canis lupus familiaris; conditions: in vivo
[19] = Unbound Cmax in cynomolgus monkey plasma measured at 10 mg/kg, po or 0.1 mg/kg, iv after 48 hrs by LC-MS/MS analysis; type: ADME, organism-based, Macaca fascicularis; conditions: in vivo
[20] = Clearance in Beagle dog plasma at 3 mg/kg, po or 0.46 mg/kg, iv after 48 hrs by LC-MS/MS analysis; type: ADME, organism-based, Canis lupus familiaris
[21] = Clearance in cynomolgus monkey plasma at 10 mg/kg, po or 0.1 mg/kg, iv after 48 hrs by LC-MS/MS analysis; type: ADME, organism-based, Macaca fascicularis
[22] = Clearance in Beagle dog blood at 3 mg/kg, po or 0.46 mg/kg, iv after 48 hrs by LC-MS/MS analysis; type: ADME, organism-based, Canis lupus familiaris
[23] = Clearance in cynomolgus monkey blood at 10 mg/kg, po or 0.1 mg/kg, iv after 48 hrs by LC-MS/MS analysis; type: ADME, organism-based, Macaca fascicularis
[24] = Volume of distribution at steady state in Beagle dog at 3 mg/kg, po or 0.46 mg/kg, iv after 48 hrs by LC-MS/MS analysis; type: ADME, organism-based, Canis lupus familiaris; conditions: in vivo, read-out: Vdss
[25] = Volume of distribution at steady state in cynomolgus monkey at 10 mg/kg, po or 0.1 mg/kg, iv after 48 hrs by LC-MS/MS analysis; type: ADME, organism-based, Macaca fascicularis; conditions: in vivo, read-out: Vdss
[26] = Mean residence time in Beagle dog at 3 mg/kg, po or 0.46 mg/kg, iv after 48 hrs by LC-MS/MS analysis; type: ADME, organism-based, Canis lupus familiaris; conditions: in vivo
[27] = Mean residence time in cynomolgus monkey at 10 mg/kg, po or 0.1 mg/kg, iv after 48 hrs by LC-MS/MS analysis; type: ADME, organism-based, Macaca fascicularis; conditions: in vivo
[28] = target: T1, Cystic fibrosis transmembrane conductance regulator; assay: Potentiation of CFTR F508del mutant (unknown origin) expressed in FRT cells assessed as chloride transport by measuring membrane potential in presence of forskolin; type: cell-based
[29] = test system: Cystic fibrosis transmembrane conductance regulator (Homo sapiens), P13569 [F508del]; assay: Potentiation of CFTR F508del mutant (unknown origin) expressed in FRT cells assessed as chloride transport by measuring membrane potential in presence of forskolin relative to PG-01; type: cell-based; conditions: filed as activator
[30] = target: T2, Cystic fibrosis transmembrane conductance regulator (Homo sapiens, UniProt P13569); assay: Potentiation of wild-type CFTR (unknown origin) expressed in FRT cells assessed as chloride transport by measuring membrane potential in presence of forskolin; type: cell-based
Target sequence in this assay (P13569 whole entry): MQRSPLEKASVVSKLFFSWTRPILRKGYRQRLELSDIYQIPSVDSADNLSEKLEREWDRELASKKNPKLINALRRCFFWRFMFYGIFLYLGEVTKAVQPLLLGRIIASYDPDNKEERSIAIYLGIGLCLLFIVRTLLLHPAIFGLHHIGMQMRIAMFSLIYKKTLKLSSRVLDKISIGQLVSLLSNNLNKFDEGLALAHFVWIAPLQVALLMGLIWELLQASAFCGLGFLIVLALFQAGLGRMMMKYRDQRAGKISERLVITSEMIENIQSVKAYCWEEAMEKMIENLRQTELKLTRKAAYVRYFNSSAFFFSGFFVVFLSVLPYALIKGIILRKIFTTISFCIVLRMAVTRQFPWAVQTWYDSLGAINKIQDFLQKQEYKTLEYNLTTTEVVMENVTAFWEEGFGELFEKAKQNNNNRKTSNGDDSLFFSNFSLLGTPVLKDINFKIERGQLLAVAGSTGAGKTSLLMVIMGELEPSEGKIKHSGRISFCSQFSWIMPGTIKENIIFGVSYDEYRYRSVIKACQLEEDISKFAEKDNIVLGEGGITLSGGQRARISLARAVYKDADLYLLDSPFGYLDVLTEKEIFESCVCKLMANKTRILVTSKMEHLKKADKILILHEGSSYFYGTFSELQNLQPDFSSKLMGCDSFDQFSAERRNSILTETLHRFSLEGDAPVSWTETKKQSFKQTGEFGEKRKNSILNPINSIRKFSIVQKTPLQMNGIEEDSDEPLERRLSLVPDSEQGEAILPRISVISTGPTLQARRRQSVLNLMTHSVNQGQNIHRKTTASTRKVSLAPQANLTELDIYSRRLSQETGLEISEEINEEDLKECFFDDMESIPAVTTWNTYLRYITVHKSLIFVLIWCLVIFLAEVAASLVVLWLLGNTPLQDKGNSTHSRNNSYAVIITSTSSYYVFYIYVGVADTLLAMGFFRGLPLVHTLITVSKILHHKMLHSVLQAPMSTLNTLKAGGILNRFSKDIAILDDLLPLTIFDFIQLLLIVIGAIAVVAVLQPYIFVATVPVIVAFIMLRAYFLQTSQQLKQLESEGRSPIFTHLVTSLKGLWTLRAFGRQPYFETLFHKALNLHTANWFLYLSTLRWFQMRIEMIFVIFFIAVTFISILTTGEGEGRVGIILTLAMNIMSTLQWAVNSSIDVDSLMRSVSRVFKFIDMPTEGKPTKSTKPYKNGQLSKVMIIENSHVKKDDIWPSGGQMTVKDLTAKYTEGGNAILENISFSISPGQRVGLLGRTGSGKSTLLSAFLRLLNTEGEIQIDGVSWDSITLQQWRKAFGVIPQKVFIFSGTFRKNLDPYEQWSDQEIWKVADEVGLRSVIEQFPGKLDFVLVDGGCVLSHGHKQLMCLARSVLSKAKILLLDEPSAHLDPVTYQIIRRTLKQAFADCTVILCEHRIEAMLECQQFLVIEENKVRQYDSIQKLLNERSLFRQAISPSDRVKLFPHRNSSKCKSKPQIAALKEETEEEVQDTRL

[31] = target: T2, Cystic fibrosis transmembrane conductance regulator; assay: Potentiation of wild-type CFTR (unknown origin) expressed in FRT cells assessed as chloride transport by measuring membrane potential in presence of forskolin relative to PG-01; type: cell-based; conditions: filed as activator
Target sequence in this assay (P13569 whole entry, looked up): as the sequence (P13569 whole entry) above

[32] = target: Cystic fibrosis transmembrane conductance regulator (Homo sapiens, UniProt P13569, G551D); assay: Potentiation of CFTR G551D mutant (unknown origin) expressed in FRT cells assessed as chloride transport by measuring membrane potential in presence of forskolin; type: cell-based
Cystic fibrosis transmembrane conductance regulator (Homo sapiens, UniProt P13569, G551D), sequence (P13569 whole entry G551D): as the sequence (P13569 whole entry) above, with G551D counted along it

[33] = test system: Cystic fibrosis transmembrane conductance regulator (Homo sapiens), P13569 [G551D]; assay: Potentiation of CFTR G551D mutant (unknown origin) expressed in FRT cells assessed as chloride transport by measuring membrane potential in presence of forskolin relative to PG-01; type: cell-based; conditions: filed as activator
Cystic fibrosis transmembrane conductance regulator (Homo sapiens), P13569 [G551D], sequence (P13569 whole entry G551D): as the sequence (P13569 whole entry) above, with G551D counted along it

[34] = target: T1, Cystic fibrosis transmembrane conductance regulator; assay: Potentiation of CFTR F508 deletion mutant (unknown origin) expressed in HBE cells assessed as change in short circuit current in presence of forskolin and amiloride; type: cell-based
[35] = test system: Cystic fibrosis transmembrane conductance regulator (Homo sapiens), P13569 [F508del]; assay: Potentiation of CFTR F508 deletion mutant (unknown origin) expressed in HBE cells assessed as change in short circuit current in presence of forskolin and amiloride relative to PG-01; type: cell-based; conditions: filed as activator
[36] = target: T2, Cystic fibrosis transmembrane conductance regulator; assay: Potentiation of wild type CFTR (unknown origin) expressed in HBE cells assessed as change in short circuit current in presence of forskolin and amiloride; type: cell-based
Target sequence in this assay (P13569 whole entry): as the sequence (P13569 whole entry) above

[37] = target: T2, Cystic fibrosis transmembrane conductance regulator; assay: Potentiation of wild type CFTR (unknown origin) expressed in HBE cells assessed as change in short circuit current in presence of forskolin and amiloride relative to PG-01; type: cell-based; conditions: filed as activator
Target sequence in this assay (P13569 whole entry, looked up): as the sequence (P13569 whole entry) above

[38] = Toxicity in Wistar Han rat assessed as NOAEL; conditions: in vivo, dose 10 mg/kg
[39] = Toxicity in Wistar Han rat assessed as tolerability at 100 mg/kg, po after 2 days; type: organism-based; conditions: in vivo, 48 h, time 2 day
[40] = Toxicity in human assessed as tolerability upto […], po bid; type: organism-based; conditions: in vivo
[41] = Clearance in Sprague-Dawley rat at 3 mg/kg, po and 1 mg/kg, iv measured upto 48 hrs by LC MS/MS analysis; type: ADME, organism-based; conditions: in vivo

- solubility [1]: 177 µg/mL (≈ 447 µM)
- bioavailability [2]: 32%
- Cmax [3]: 271 nM
- EC50 [4]: 9 nM
- Activity [5]: 100%
- clearance [6]: 53 mL/min/kg
- Vd [7]: 3.2 L/kg
- MRT [8]: 1 h
SMILES: Nc1cc(C(F)(F)F)c(Br)nc1C(=O)NC[C@@H](O)C(F)(F)F

- solubility [1]: 237 µg/mL (≈ 656 µM)
- fraction unbound at 4 h, 5 µM [9]: 0.097
- bioavailability [2]: 90%
- Cmax [10]: 1360 nM
- fCmax [11]: 132 nM
- Vd [12]: 3 L/kg
- MRT [13]: 10.2 h
- bioavailability [14]: 146%
- bioavailability [15]: 26%
- Cmax [16]: 1950 nM
- Cmax [17]: 2300 nM
- fCmax [18]: 102 nM
- fCmax [19]: 276 nM
- clearance [20]: 29 mL/min/kg
- clearance [21]: 18 mL/min/kg
- clearance [22]: 41 mL/min/kg
- clearance [23]: 20.2 mL/min/kg
- Vd [24]: 7.5 L/kg
- Vd [25]: 3.5 L/kg
- MRT [26]: 4.4 h
- MRT [27]: 3.3 h
- EC50 [4]: 47 nM
- Activity [5]: 96%
- EC50 [28]: 79 nM
- Activity [29]: 92%
- EC50 [30]: 113 nM
- Activity [31]: 79%
- EC50 [32]: 497 nM
- Activity [33]: 40%
- EC50 [34]: 39 nM
- Activity [35]: 84%
- EC50 [36]: 72 nM
- Activity [37]: 87%
- clearance [41]: 5 mL/min/kg
SMILES: COc1nc(C(=O)NC[C@](C)(O)C(F)(F)F)c(N)cc1C(F)(F)F [ICENTICAFTOR]
- NOAEL [38]: 10 mg/kg
- Activity [39]: Non-Toxic
- Activity [40]: Non-Toxic
